Data reported in patent US20240116985A1, “STAPLED PEPTIDES AND METHODS THEREOF” (priority 2020, published 2024).
Like-named read-outs stand apart in the source and are kept apart here. Non-standard residues stand in square brackets, D forms with d. Residues, ends and D or L forms follow the SMILES beside them. Bta = N[C@@H](Cc1csc2ccccc12)C(=O)O; tBuAla = CC(C)(C)C[C@H](N)C(=O)O; 3Thi = N[C@@H](Cc1ccsc1)C(=O)O; αMeP = C[C@@]1(C(=O)O)CCCN1; Aib = CC(C)(N)C(=O)O

Target: T1, full-length beta-Catenin (Uniprot ID P35222) (Homo sapiens, UniProt P35222)
T1 construct: 10 nM full-length beta-Catenin (Uniprot ID P35222)
T1 sequence (P35222 1-781): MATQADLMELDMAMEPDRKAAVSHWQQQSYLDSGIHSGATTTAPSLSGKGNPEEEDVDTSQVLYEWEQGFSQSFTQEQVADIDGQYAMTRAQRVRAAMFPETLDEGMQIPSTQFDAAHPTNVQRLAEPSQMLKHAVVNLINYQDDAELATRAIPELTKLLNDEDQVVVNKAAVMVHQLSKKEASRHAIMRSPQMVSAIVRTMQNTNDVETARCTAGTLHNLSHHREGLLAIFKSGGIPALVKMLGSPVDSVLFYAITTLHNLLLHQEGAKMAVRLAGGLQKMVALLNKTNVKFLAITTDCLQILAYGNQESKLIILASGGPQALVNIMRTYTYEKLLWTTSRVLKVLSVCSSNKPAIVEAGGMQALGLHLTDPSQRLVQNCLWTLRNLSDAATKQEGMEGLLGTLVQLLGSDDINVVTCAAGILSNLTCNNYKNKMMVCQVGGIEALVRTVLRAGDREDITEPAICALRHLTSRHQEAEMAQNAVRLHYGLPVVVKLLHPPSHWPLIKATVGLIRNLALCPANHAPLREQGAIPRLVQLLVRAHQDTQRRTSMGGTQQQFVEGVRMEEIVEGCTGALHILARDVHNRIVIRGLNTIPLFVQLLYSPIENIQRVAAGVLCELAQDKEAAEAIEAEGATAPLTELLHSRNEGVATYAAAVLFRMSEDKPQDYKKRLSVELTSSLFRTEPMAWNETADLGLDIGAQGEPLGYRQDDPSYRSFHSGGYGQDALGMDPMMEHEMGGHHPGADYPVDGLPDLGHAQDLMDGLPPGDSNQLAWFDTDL
Test: Fluorescence polarization IC50 (beta-catenin / 5FAM-TCF4 10-53 competition)
Format: binding
Conditions: fluorescence polarization

| IC50 (read-out: beta-Catenin FP IC50) | Compound | IC50 (beta-Catenin FP IC50 (nM)) |
| --- | --- | --- |
| 6 nM | CC(=O)N1CCC[C@]12CC=CCCCC1(CCCC=CCCCOC(=O)N3CC[C@@](C(=O)N[C@@H](Cc4ccsc4)C(=O)N[C@@H](Cc4csc5ccccc45)C(=O)N[C@@H](Cc4c[nH]cn4)C(=O)N[C@@H](CCCCN)C(N)=O)(C3)NC(=O)[C@H](CCC(N)=O)NC(=O)[C@H](Cc3ccccc3)NC(=O)[C@H](C)NC(=O)[C@H](C)NC(=O)[C@H](CC(=O)O)NC(=O)[C@H](CC(=O)O)NC1=O)NC(=O)[C@H](CC(C)(C)C)NC(=O)[C@H](CC(=O)O)NC2=O (stereo partly drawn) [I-2229, Ac-PL3-Asp-Npg-B5-Asp-Asp-Ala-Ala-Phe-Gln-PyrS2-3thi-BztA-His-Lys-NH2] |  |
| 8 nM | CC(=O)N1CCC[C@]12CC=CCCCC1(CCCC=CCCCOC(=O)N3CC[C@@](C(=O)N[C@@H](Cc4ccsc4)C(=O)N[C@@H](Cc4csc5ccccc45)C(=O)N[C@@H](Cc4c[nH]cn4)C(=O)N[C@@H](CCCCN)C(N)=O)(C3)NC(=O)[C@H](CCC(N)=O)NC(=O)[C@H](Cc3ccccc3)NC(=O)[C@H](C)NC(=O)[C@H](C)NC(=O)[C@H](CC(=O)O)NC(=O)[C@H](CC(=O)O)NC1=O)NC(=O)[C@H](CC(C)(C)C)NC(=O)[C@H](CC(=O)O)NC2=O (stereo partly drawn) [I-2230, Ac-PL3-Asp-Npg-B5-Asp-Asp-Ala-Ala-Phe-Gln-PyrS2-3thi-BztA-His-Lys-NH2] |  |
| 5190 nM | CC(=O)N1CCC[C@@]1(C)C(=O)N[C@@H](CC(=O)O)C(=O)N[C@@H](CC(C)(C)C)C(=O)NC(C)(C)C(=O)N[C@@H](CC(=O)O)C(=O)N[C@@H](CC(=O)O)C(=O)N[C@@H](C)C(=O)N[C@@H](C)C(=O)N[C@@H](Cc1ccccc1)C(=O)N[C@@H](CCC(N)=O)C(=O)NC(C)(C)C(=O)N[C@@H](Cc1ccsc1)C(=O)N[C@@H](Cc1csc2ccccc12)C(=O)N[C@@H](Cc1c[nH]cn1)C(=O)N[C@@H](CCCCN)C(N)=O [I-2231, Ac-MePro-Asp-Npg-Aib-Asp-Asp-Ala-Ala-Phe-Gln-Aib-3thi-BztA-His-Lys-NH2] (Ac-[αMeP]D[tBuAla][Aib]DDAAFQ[Aib][3Thi][Bta]HK-NH2) |  |
| 11 nM | CC(=O)N1CCC[C@]12CC=CCCCC1(CCCC=CCCCOC(=O)N3CC[C@@](C(=O)N[C@@H](Cc4ccsc4)C(=O)N[C@@H](Cc4csc5ccccc45)C(=O)N[C@@H](CCC(N)=O)C(N)=O)(C3)NC(=O)[C@H](CC(C)C)NC(=O)[C@H](Cc3ccccc3)NC(=O)[C@H](C)NC(=O)[C@H](C)NC(=O)[C@H](CN(CC(=O)O)C(=O)c3ccc(CN4CCOCC4)cc3)NC(=O)[C@H](CC(=O)O)NC1=O)NC(=O)[C@H](CC(C)(C)C)NC(=O)[C@H](CC(=O)O)NC2=O (stereo partly drawn) [I-2238, Ac-PL3-Asp-Npg-B5-Asp-[MeMorphBz]GA-Ala-Ala-Phe-Leu-PyrS2-3Thi-BztA-Gln-NH2] |  |
| 16 nM | CC(=O)N1CCC[C@]12CC=CCCCC1(CCCC=CCCCOC(=O)N3CC[C@@](C(=O)N[C@@H](Cc4ccsc4)C(=O)N[C@@H](Cc4csc5ccccc45)C(=O)N[C@@H](CCC(N)=O)C(N)=O)(C3)NC(=O)[C@H](CC(C)C)NC(=O)[C@H](Cc3ccccc3)NC(=O)[C@H](C)NC(=O)[C@H](C)NC(=O)[C@H](CCN(CC(=O)O)C(=O)CCN(C)C)NC(=O)[C@H](CC(=O)O)NC1=O)NC(=O)[C@H](CC(C)(C)C)NC(=O)[C@H](CC(=O)O)NC2=O (stereo partly drawn) [I-2244, Ac-PL3-Asp-Npg-B5-Asp-[Me2NPr]GAbu-Ala-Ala-Phe-Leu-PyrS2-3Thi-BztA-Gln-NH2] |  |
| 14 nM | CC(=O)N1CCC[C@]12CC=CCCCC1(CCCC=CCCCOC(=O)N3CC[C@@](C(=O)N[C@@H](Cc4ccsc4)C(=O)N[C@@H](Cc4csc5ccccc45)C(=O)N[C@@H](CCC(N)=O)C(N)=O)(C3)NC(=O)[C@H](CC(C)C)NC(=O)[C@H](Cc3ccccc3)NC(=O)[C@H](C)NC(=O)[C@H](C)NC(=O)[C@H](CCN(CC(=O)O)C(=O)CN3CCOCC3)NC(=O)[C@H](CC(=O)O)NC1=O)NC(=O)[C@H](CC(C)(C)C)NC(=O)[C@H](CC(=O)O)NC2=O (stereo partly drawn) [I-2249, Ac-PL3-Asp-Npg-B5-Asp-[MorphAc]GAbu-Ala-Ala-Phe-Leu-PyrS2-3Thi-BztA-Gln-NH2] |  |
| 12 nM | CC(=O)N1CCC[C@]12CC=CCCCC1(CCCC=CCCCOC(=O)N3CC[C@@](C(=O)N[C@@H](Cc4ccsc4)C(=O)N[C@@H](Cc4csc5ccccc45)C(=O)N[C@@H](CCC(N)=O)C(N)=O)(C3)NC(=O)[C@H](CC(C)C)NC(=O)[C@H](Cc3ccccc3)NC(=O)[C@H](C)NC(=O)[C@H](C)NC(=O)[C@H](CCN(CC(=O)O)C(=O)CN3CCN(C)CC3)NC(=O)[C@H](CC(=O)O)NC1=O)NC(=O)[C@H](CC(C)(C)C)NC(=O)[C@H](CC(=O)O)NC2=O (stereo partly drawn) [I-2250, Ac-PL3-Asp-Npg-B5-Asp-[MePipAc]GAbu-Ala-Ala-Phe-Leu-PyrS2-3Thi-BztA-Gln-NH2] |  |
|  | CC(C)C[C@@H]1NC(=O)[C@H](Cc2ccccc2)NC(=O)[C@H](C)NC(=O)[C@H](C)NC(=O)[C@H](Cc2cccc(C(=O)O)c2)NC(=O)[C@H](CC(=O)O)NC(=O)C2(CCCC=CCCCOC(=O)N3CC[C@@](C(=O)N[C@@H](Cc4ccccc4Cl)C(=O)N[C@@H](Cc4csc5ccccc45)C(=O)N[C@@H](C)C(N)=O)(C3)NC1=O)CCCC=CC[C@]1(CCCN1C(=O)CCl)C(=O)N[C@@H](CC(=O)O)C(=O)N[C@@H](CC(C)(C)C)C(=O)N2 (stereo partly drawn) [I-2253, ClAc-PL3-Asp-Npg-B5-Asp-3COOHF-Ala-Ala-Phe-Leu-PyrS2-2C1F-BztA-Ala-NH2] | 189 nM |
| 5790 nM | CC(=O)N1CCC[C@]12CC=CCCCC1(CCCC=CCCCOC(=O)N3CC[C@@](C(=O)N[C@@H](Cc4cccc(-c5ccccc5)c4)C(=O)N[C@@H](Cc4ccsc4)C(=O)N[C@@H](CCC(N)=O)C(N)=O)(C3)NC(=O)[C@H](CC(C)C)NC(=O)[C@H](Cc3ccccc3)NC(=O)[C@H](C)NC(=O)[C@H](C)NC(=O)[C@H](Cc3cccc(C(=O)O)c3)NC(=O)[C@H](CC(=O)O)NC1=O)NC(=O)[C@H](CC(C)(C)C)NC(=O)[C@H](CC(=O)O)NC2=O (stereo partly drawn) [I-2254, Ac-PL3-Asp-Npg-B5-Asp-3COOHF-Ala-Ala-Phe-Leu-PyrS2-[Ph]3SF-3Thi-Gln-NH2] |  |
| 7650 nM | CC(=O)N1CCC[C@]12CC=CCCCC1(CCCC=CCCCOC(=O)N3CC[C@@](C(=O)N[C@@H](Cc4cccc(-c5ccccc5)c4)C(=O)N[C@@H](CC4CCC4)C(=O)N[C@@H](CCC(N)=O)C(N)=O)(C3)NC(=O)[C@H](CC(C)C)NC(=O)[C@H](Cc3ccccc3)NC(=O)[C@H](C)NC(=O)[C@H](C)NC(=O)[C@H](Cc3cccc(C(=O)O)c3)NC(=O)[C@H](CC(=O)O)NC1=O)NC(=O)[C@H](CC(C)(C)C)NC(=O)[C@H](CC(=O)O)NC2=O (stereo partly drawn) [I-2255, Ac-PL3-Asp-Npg-B5-Asp-3COOHF-Ala-Ala-Phe-Leu-PyrS2-[Ph]3SF-Cba-Gln-NH2] |  |
| 8410 nM | CC(=O)N1CCC[C@]12CC=CCCCC1(CCCC=CCCCOC(=O)N3CC[C@@](C(=O)N[C@@H](Cc4cccc(-c5ccccc5)c4)C(=O)N[C@@H](Cc4ccccc4C(F)(F)F)C(=O)N[C@@H](CCC(N)=O)C(N)=O)(C3)NC(=O)[C@H](CC(C)C)NC(=O)[C@H](Cc3ccccc3)NC(=O)[C@H](C)NC(=O)[C@H](C)NC(=O)[C@H](Cc3cccc(C(=O)O)c3)NC(=O)[C@H](CC(=O)O)NC1=O)NC(=O)[C@H](CC(C)(C)C)NC(=O)[C@H](CC(=O)O)NC2=O (stereo partly drawn) [I-2256, Ac-PL3-Asp-Npg-B5-Asp-3COOHF-Ala-Ala-Phe-Leu-PyrS2-[Ph]3SF-2F3MeF-Gln-NH2] |  |
| 272 nM | CC(=O)N1CCC[C@]12CC=CCCCC1(CCCC=CCCCOC(=O)N3CC[C@@](C(=O)N[C@@H](Cc4ccsc4)C(=O)N[C@@H](Cc4csc5ccccc45)C(=O)N[C@@H](C)C(N)=O)(C3)NC(=O)[C@H](CC(C)C)NC(=O)[C@H](Cc3ccccc3)NC(=O)[C@H](C)NC(=O)[C@H](C)NC(=O)[C@H](Cc3cccc(C(=O)O)c3)NC(=O)[C@H](CC(=O)O)NC1=O)NC(=O)[C@H](CC(C)(C)C)NC(=O)[C@H]([C@@H](O)C(=O)O)NC2=O (stereo partly drawn) [I-2258, Ac-PL3-RbOHAsp-Npg-B5-Asp-3COOHF-Ala-Ala-Phe-Leu-PyrS2-3Thi-BztA-Ala-NH2] |  |
| 45 nM | CC(=O)N1CC2CC1C(=O)N[C@@H](CC(=O)O)C(=O)N[C@@H](CC(C)(C)C)C(=O)NC1(CCCC=CCCCOC(=O)N3CC[C@@](C(=O)N[C@@H](Cc4ccsc4)C(=O)N[C@@H](Cc4csc5ccccc45)C(=O)N[C@@H](CCC(N)=O)C(N)=O)(C3)NC(=O)[C@H](CC(C)C)NC(=O)[C@H](Cc3ccccc3)NC(=O)[C@H](C)NC(=O)[C@H](C)NC(=O)[C@H](CN(CC(=O)O)CC(F)(F)F)NC(=O)[C@H](CC(=O)O)NC1=O)CCCC=CCCC(=O)O2 (stereo partly drawn) [I-2264, Ac-HypEs5-Asp-Npg-B5-Asp-TfeGA-Ala-Ala-Phe-Leu-PyrS2-3Thi-BztA-Gln-NH2] |  |
| 266 nM | CC(C)C[C@@H]1NC(=O)[C@H](Cc2ccccc2)NC(=O)[C@H](C)NC(=O)[C@H](C)NC(=O)[C@H](CN(CC(=O)O)CC(F)(F)F)NC(=O)[C@H](CC(=O)O)NC(=O)C2(CCCC=CCCCOC(=O)N3CC[C@@](C(=O)N[C@@H](Cc4ccsc4)C(=O)N[C@@H](Cc4csc5ccccc45)C(=O)N[C@@H](CCC(N)=O)C(N)=O)(C3)NC1=O)CCCC=CCS(=O)(=O)N1CCC[C@@H]1C(=O)N[C@@H](CC(=O)O)C(=O)N[C@@H](CC(C)(C)C)C(=O)N2 (stereo partly drawn) [I-2266, ProSAm3-Asp-Npg-B5-Asp-TfeGA-Ala-Ala-Phe-Leu-PyrS2-3Thi-BztA-Gln-NH2] |  |
